Measurements: ChEMBL document CHEMBL5543114, “Chimeric NOD2 Mincle Agonists as Vaccine Adjuvants” (J Med Chem, 2024)
The source made the active and inactive calls. The rule behind the calls is not given here.

Legend:
[1] = test system: 2B4; assay: Induction of NFAT-GFP signal in mouse 2B4 reporter cells expressing mMincle + FcRgamma at 0.1 to 1 nmol incubated for 18 hrs by flow cytometry analysis; type: functional, cell-based; details: dose 0.1-1 nmol
[2] = test system: HEK293; assay: Induction of IL-8 production in HEK293 cells expressing mouse NOD2 at 5 to 50 uM incubated for 20 hrs by ELISA; type: functional, cell-based; details: Homo sapiens, dose 5-50 µM
[3] = test system: BMDM; assay: Induction of IL-1beta production in C57BL/6 mouse BMDM at 1 nmol incubated for 48 hrs by ELISA; type: functional, cell-based
[4] = test system: BMDM; assay: Induction of IL-6 production in C57BL/6 mouse BMDM at 1 nmol incubated for 48 hrs by ELISA; type: functional, cell-based
[5] = test system: BMDM; assay: Induction of IL-23 production in C57BL/6 mouse BMDM at 1 nmol incubated for 48 hrs by ELISA; type: functional, cell-based
[6] = test system: Splenocyte; assay: Improvement in memory response in ovalbumin immunized C57BL/6 mouse splenocytes assessed as increase in IFNgamma level incubated for 72 hrs by ELISA; type: functional, cell-based
[7] = species: Mus musculus; assay: Adjuvanticity in ovalbumin immunized C57BL/6 mouse assessed as increase in anti-OVA IgG titers at 40 nmol boosted with OVA at 1 week and measured after week 3, 4, 5 by ELISA; type: functional, organism-based; details: time 5.0 weeks
[8] = Toxicity in ovalbumin immunized C57BL/6 mouse assessed as body weight loss at 40 nmol boosted with OVA at 1 week and measured after week 3, 4, 5 and 6; details: in vivo, 1008 h, time 6 weeks
[9] = Toxicity in ovalbumin immunized C57BL/6 mouse assessed as appearance of inflamed skin at tail base at 40 nmol measured after 1 week post immunization; type: tissue-based; details: in vivo, 168 h, time 1 weeks
[10] = test system: BMDM; assay: Induction of IL-1beta production in C57BL/6 mouse BMDM cells at 2 ug/ml incubated for 48 hrs in presence of 1 nmol [(2R,3S,4S,5R,6R)-3,4,5-trihydroxy-6-[(3R,4S,5S,6R)-3,4,5-trihydroxy-6-[(4-octadecoxybenzoyl)oxymethyl]tetrahydropyran-2-yl]oxy-tetrahydropyran-2-yl]methyl 4-octadecoxybenzoate by ELISA; type: functional, cell-based; details: dose 2.0 µg/ml
[11] = test system: BMDM; assay: Induction of IL-23 production in C57BL/6 mouse BMDM cells at 2 ug/ml incubated for 48 hrs in presence of 1 nmol [(2R,3S,4S,5R,6R)-3,4,5-trihydroxy-6-[(3R,4S,5S,6R)-3,4,5-trihydroxy-6-[(4-octadecoxybenzoyl)oxymethyl]tetrahydropyran-2-yl]oxy-tetrahydropyran-2-yl]methyl 4-octadecoxybenzoate by ELISA; type: functional, cell-based; details: dose 2.0 µg/ml
[12] = test system: HEK293; assay: Induction of IL-8 production in HEK293 cells expressing mouse NOD2 at 10 to 100 uM incubated for 20 hrs in presence of 5 to 50 uM [(2R,3S,4S,5R,6R)-3,4,5-trihydroxy-6-[(3R,4S,5S,6R)-3,4,5-trihydroxy-6-[(4-octadecoxybenzoyl)oxymethyl]tetrahydropyran-2-yl]oxy-tetrahydropyran-2-yl]methyl 4-octadecoxybenzoate by ELISA; type: functional, cell-based; details: Homo sapiens, dose 10-100 µM
[13] = test system: HEK293; assay: Induction of IL-8 production in HEK293 cells expressing mouse NOD2 at 10 to 100 uM incubated for 20 hrs in presence of 5 to 50 uM 6,6'-Di-0-(2,4-bis(octadecyloxy)benzoyl)-alpha,alpha'-D-trehalose by ELISA; type: functional, cell-based; details: Homo sapiens, dose 10-100 µM
[14] = test system: Splenocyte; assay: Improvement in memory response in ovalbumin immunized C57BL/6 mouse splenocytes assessed as increase in IFNgamma level incubated for 72 hrs in presence of 6,6'-Di-0-(2,4-bis(octadecyloxy)benzoyl)-alpha,alpha'-D-trehalose by ELISA; type: functional, cell-based
[15] = test system: Splenocyte; assay: Improvement in memory response in ovalbumin immunized C57BL/6 mouse splenocytes assessed as increase in IFNgamma level incubated for 72 hrs in presence of [(2R,3S,4S,5R,6R)-3,4,5-trihydroxy-6-[(3R,4S,5S,6R)-3,4,5-trihydroxy-6-[(4-octadecoxybenzoyl)oxymethyl]tetrahydropyran-2-yl]oxy-tetrahydropyran-2-yl]methyl 4-octadecoxybenzoate by ELISA; type: functional, cell-based
[16] = species: Mus musculus; assay: Adjuvanticity in ovalbumin immunized C57BL/6 mouse assessed as increase in anti-OVA IgG titers boosted with OVA at 1 week and measured after week 3, 4, 5 and 6 in presence of 6,6'-Di-0-(2,4-bis(octadecyloxy)benzoyl)-alpha,alpha'-D-trehalose by ELISA; type: functional, organism-based; details: time 6.0 weeks
[17] = Toxicity in ovalbumin immunized C57BL/6 mouse assessed as reactogenicity boosted with OVA at 1 week and measured after week 3, 4, 5 and 6 in presence of 6,6'-Di-0-(2,4-bis(octadecyloxy)benzoyl)-alpha,alpha'-D-trehalose; details: in vivo, 1008 h, time 6 weeks
[18] = test system: HEK293; assay: Induction of IL-8 production in HEK293 cells expressing mouse NOD2 at 5 to 50 uM incubated for 20 hrs in presence of 10 to 100 uM (4R)-4-[[(2S)-2-[[(2R)-2-[(3R,4R,5S,6R)-3-acetamido-2,5-dihydroxy-6-(hydroxymethyl)tetrahydropyran-4-yl]oxypropanoyl]amino]propanoyl]amino]-5-amino-5-oxo-pentanoic acid by ELISA; type: functional, cell-based; details: Homo sapiens, dose 5-50 µM
[19] = test system: Splenocyte; assay: Improvement in memory response in ovalbumin immunized C57BL/6 mouse splenocytes assessed as increase in IFNgamma level incubated for 72 hrs in presence of (4R)-4-[[(2S)-2-[[(2R)-2-[(3R,4R,5S,6R)-3-acetamido-2,5-dihydroxy-6-(hydroxymethyl)tetrahydropyran-4-yl]oxypropanoyl]amino]propanoyl]amino]-5-amino-5-oxo-pentanoic acid by ELISA; type: functional, cell-based
[20] = Toxicity in ovalbumin immunized C57BL/6 mouse assessed as reactogenicity boosted with OVA at 1 week and measured after week 3, 4, 5 and 6 in presence of (4R)-4-[[(2S)-2-[[(2R)-2-[(3R,4R,5S,6R)-3-acetamido-2,5-dihydroxy-6-(hydroxymethyl)tetrahydropyran-4-yl]oxypropanoyl]amino]propanoyl]amino]-5-amino-5-oxo-pentanoic acid; details: in vivo, 1008 h, time 6 weeks
[21] = species: Mus musculus; assay: Adjuvanticity in ovalbumin immunized C57BL/6 mouse assessed as increase in anti-OVA IgG titers boosted with OVA at 1 week and measured after week 3, 4, 5 and 6 in presence of (4R)-4-[[(2S)-2-[[(2R)-2-[(3R,4R,5S,6R)-3-acetamido-2,5-dihydroxy-6-(hydroxymethyl)tetrahydropyran-4-yl]oxypropanoyl]amino]propanoyl]amino]-5-amino-5-oxo-pentanoic acid by ELISA; type: functional, organism-based; details: time 6.0 weeks

## CCCCCCCCCCCCCCCCCCCOc1ccc(C(=O)OC[C@H]2O[C@H](O[C@H]3O[C@H](COC(=O)c4ccc(OCCCCCCCCCCCCCCCCCC)cc4OCCCCCCCCCCCCCCCCCc4cn(CCCCN(OC)[C@@H]5O[C@H](CO)[C@@H](O)[C@H](O[C@H](C)C(=O)N[C@@H](C)C(=O)N[C@H](CCC(=O)O)C(N)=O)[C@H]5NC(C)=O)nn4)[C@@H](O)[C@H](O)[C@H]3O)[C@H](O)[C@@H](O)[C@@H]2O)c(OCCCCCCCCCCCCCCCCCc2cn(CCCCN(OC)[C@@H]3O[C@H](CO)[C@@H](O)[C@H](O[C@H](C)C(=O)N[C@@H](C)C(=O)N[C@H](CCC(=O)O)C(N)=O)[C@H]3NC(C)=O)nn2)c1
[1]
  Activity: Active
[2]
  Activity: Active
[3]
  Activity: Active
[4]
  Activity: Active
[5]
  Activity: Active
[6]
  Activity: Active
[7]
  Activity: Active
[8]
  Activity: Non-Toxic
[9]
  Activity: Toxic

## CC(=O)N[C@@H]1[C@@H](O[C@H](C)C(=O)N[C@@H](C)C(=O)N[C@H](CCC(=O)O)C(N)=O)[C@H](O)[C@@H](CO)O[C@H]1O [MURAMYL DIPEPTIDE]
[10]
  Activity: Active
[11]
  Activity: Active
[12]
  Activity: Active
[13]
  Activity: Active
[14]
  Activity: inactive
[15]
  Activity: Active
[16]
  Activity: Active
[17]
  Activity: Toxic

## CCCCOC(=O)[C@@H](CCC(N)=O)NC(=O)[C@H](C)NC(=O)[C@@H](C)O[C@H]1[C@H](O)[C@@H](CO)OC(O)[C@@H]1NC(C)=O (stereo not given in full)
[11]
  Activity: inactive

## CCCCCCCCCCCCCCCCCCOc1ccc(C(=O)OC[C@H]2O[C@H](O[C@H]3O[C@H](COC(=O)c4ccc(OCCCCCCCCCCCCCCCCCC)cc4OCCCCCCCCCCCCCCCCCC)[C@@H](O)[C@H](O)[C@H]3O)[C@H](O)[C@@H](O)[C@@H]2O)c(OCCCCCCCCCCCCCCCCCC)c1
[1]
  Activity: Active
[2]
  Activity: inactive
[18]
  Activity: Active
[19]
  Activity: inactive
[20]
  Activity: Toxic
[21]
  Activity: Active

## CONCCCn1cc(CCCCCCCCCCCCCCCCCOc2ccc(C(=O)OC[C@H]3O[C@H](O[C@H]4O[C@H](COC(=O)c5ccc(OCCCCCCCCCCCCCCCCCc6cn(CCCNOC)nn6)cc5)[C@@H](O)[C@H](O)[C@H]4O)[C@H](O)[C@@H](O)[C@@H]3O)cc2)nn1
[1]
  Activity: Active
